These results are taken from patent publication US20130289083A1, “IDO Inhibitors” (priority 2007, published 2013).

Where two headings read alike, the source gives them in different places. Where only a bound is given, the exact number is not on record here.

One experiment has as its target human IDO (Homo sapiens, UniProt P14902). Kind of experiment: Cell based IDO/kynurenine assay in IDO-293-T-Rex cells. As to conditions: kynurenine production, read-out: hIDO EC50. On the procedure:
293-T-REx™ cells (Invitrogen) constitutively express a tet operator binding repressor protein and are maintained in DMEM, 10% FBS, 1× Penicillin+Streptomycin, 2 mM L-glutamine, 5 μg/mL blasticidin at 37° C. with a 5% CO2 in air atmosphere and typically split prior to confluency. Cells were passed by splitting the culture 1/10—by removing media by aspiration, washing 1× with PBS, incubating with 0.25% trypsin/EDTA until the cells detach, disbursing the cells in fresh growth media, and plating at 1/10 dilutions in fresh growth media. For long term cryopreservation, cells are detached from the plate as described above, collected by centrifugation, resuspended in freeze medium (growth medium, 10% DMSO), stored in 1.8 mL cyropreservation vials (˜2−5×10^6 cells per vial), in liquid nitrogen vapor storage tanks.
IDOl-expressing 293-T-Rex™ cell lines were generated by stable transfection of plasmid pcDNA-tetO-IDO expressing human IDO or murine IDO under the control of the doxycycline-inducible CMV-tet promoter. Transfected cells were selected in DBZ medium (DMEM, 10% FBS, 1× Penicillin+Streptomycin, 2 mM L-glutamine, 5 μg/mL blasticidin and 25 μg/ml Zeocin) at 37° C. with a 5% CO2 in air atmosphere. Individual clones were isolated by limiting dilution cloning from these populations.
[…]. The cells incubated in Neutral medium serve as negative control of the assay. The cells incubated in Induction medium and without inhibitor serve as the positive control of the assay. The incubation is carried out for 16 h at 37° C. in a cell culture incubator. 200 μL of medium are transferred to U-bottom polypropylene 96-well plates containing 25 μL of 30% TCA, incubated 30 minutes at 60° C. and centrifuged at 3400 g for 5 minutes. 150 μL of the clear supernatant is transferred to a polystyrene 96-well plate containing 50 μL of 4% (w/v) of p-dimethylaminobenzaldehyde in acetic acid, incubated for 10 min. Kynurenine concentration is determined by measuring the absorbance at 480 nm.
The conditions of the assay were as described in the examples.

Experiment [1] deals with purified human IDO protein (Homo sapiens, UniProt P14902). Put plainly: Enzymatic IDO assay (kynurenine production, absorbance 480 nm). As to conditions: enzymatic activity.
Chain of purified human IDO protein (P14902 whole entry P110S/E119G): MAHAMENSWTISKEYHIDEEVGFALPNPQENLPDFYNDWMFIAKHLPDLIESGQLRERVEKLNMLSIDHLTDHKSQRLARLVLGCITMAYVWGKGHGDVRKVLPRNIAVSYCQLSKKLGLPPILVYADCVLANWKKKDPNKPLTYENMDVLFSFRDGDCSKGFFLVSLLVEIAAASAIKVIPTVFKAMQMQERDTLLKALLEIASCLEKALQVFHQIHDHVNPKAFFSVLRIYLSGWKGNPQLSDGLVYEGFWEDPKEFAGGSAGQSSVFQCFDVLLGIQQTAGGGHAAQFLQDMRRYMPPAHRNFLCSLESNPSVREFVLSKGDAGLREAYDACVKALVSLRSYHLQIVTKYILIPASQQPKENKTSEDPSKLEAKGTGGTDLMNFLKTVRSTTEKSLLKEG
[2] abbreviates: 293T cell line stably expressing human IDO, values reported in ranges.
Setting [3] is: hIDO IC50, recombinant human IDO, values reported in ranges.
The mark [4] stands for this setting: hIDO IC50, Table 15, recombinant human IDO.
Where [5] appears, read: hIDO IC50, Table 16, recombinant human IDO.
Where [6] appears, read: Table 15, 293T cells expressing human IDO.

Chain of human IDO (P14902 whole entry): as the sequence (P14902 whole entry P110S/E119G) above, with S110P, G119E counted along it

Regarding `NC(=O)C(=O)NNc1ccccc1` [compound 312, 2-oxo-2-(2-phenylhydrazinyl)acetamide], the EC50 (commonly the concentration giving half of the maximal effect) on human IDO (setting [2]) was less than 20 µM. For the same molecule, the IC50 (usually the concentration that gives 50% inhibition) in experiment [1] (setting [3]) was less than 20 µM. Regarding `S=C1SCCCN1Cc1ccccc1` [compound 77, 3-Benzyl-1,3-thiazinane-2-thione], the IC50 in experiment [1] (setting [3]) was in the range of 100 to 1000 µM. Turning to `S=C(NC1CSc2ccccc2C1)SCc1ccc2ccccc2c1` (stereo not shown) [compound 64, naphhalen-2-ylmethyl thiochroman-3-ylcarbamodithioate], the EC50 at human IDO (setting [2]) lay in the range of 20 to 100 µM. In addition, the IC50 in experiment [1] (read-out: hIDO IC50, recombinant human IDO, values reported in ranges) was in the range of 100 to 1000 µM. Consider `CNCC(ON)c1ccccc1` (stereo not shown) [compound 1902, 2-(aminooxy)-N-methyl-2-phenylethanamine], for which the IC50 in experiment [1] (setting [4]) lay in the range of 100 to 1000 µM. `CN(C)c1ccc(/C=C2\CSC(=S)NC2=O)cc1` [compound 150, (Z)-5-(4-(dimethylamino)benzylidene)-2-thioxo-1,3-thiazinan-4-one]: at human IDO (setting [2]), the EC50 lay in the range of 100 to 1000 µM. In experiment [1] (setting [3]), the IC50 was 100 to 1000 µM. Regarding `S=C1NC(c2ccccc2)NC(c2ccccc2)S1` (stereo not shown) [compound 152, 4,6-diphenyl-1,3,5-thiadiazinane-2-thione], the EC50 on human IDO (setting [2]) is 20 to 100 µM. The IC50 in experiment [1] (setting [3]) fell in the range of 20 to 100 µM. Take `S=C(NCCc1c[nH]c2ccccc12)SCc1ccc2c(c1)OCO2` [compound 50, Benzo[d][1,3]dioxol-5-ylmethyl 2-(1H-indol-3-yl)ethylcarbamodithioate]: the EC50 on human IDO (setting [2]) fell in the range of 20 to 100 µM. In addition, the IC50 in experiment [1] (setting [3]) is 20 to 100 µM. With `S=C(NCCc1c[nH]c2ccccc12)SCc1noc2ccccc12` [compound 52, Benzo[d]isoxazol-3-ylmethyl 2-(1H-indol-3-yl)ethylcarbamodithioate], on human IDO (setting [2]), the EC50 was in the range of 20 to 100 µM. The IC50 in experiment [1] (setting [3]) is 20 to 100 µM.

Turning to `NOc1ccccc1` [compound 1900, O-phenylhydroxylamine], the IC50 in experiment [1] (setting [5]) fell in the range of 10 to 100 µM. Consider `CC1=C(CN2C(=O)c3ccccc3C2=O)C(=O)c2ccccc2C1=O` [compound 464, 2-((3-methyl-1,4-dioxo-1,4-dihydronaphthalen-2-yl)methyl)isoindoline-3-dione], for which the EC50 at human IDO (setting [2]) was in the range of 1000 to 10000 µM. In experiment [1] (setting [3]), the IC50 fell in the range of 20 to 100 µM. The matching figures for `Nc1cc(S(=O)O)c2cccnc2c1O` [compound 309, 7-amino-8-hydroxyquinoline-5-sulfinic acid]: 100 to 1000 µM and 20 to 100 µM.

On to `NOCc1cc(Cl)ccc1-c1cccs1` [compound 1931, O-(5-chloro-2-(thiophen-2-yl)benzyl)hydroxylamine], for which the EC50 on human IDO (setting [6]) is less than 10 µM. For the same molecule, in experiment [1] (setting [4]), the IC50 is less than 10 µM.

Regarding `NOCc1cc(Cl)ccc1-c1ccsc1` [compound 1932, O-(5-chloro-2-(thiophen-3-yl)benzyl)hydroxylamine], the EC50 on human IDO (setting [6]) is less than 10 µM. In experiment [1] (setting [4]), the IC50 is less than 10 µM. Turning to `COc1cccc(CCSC(=S)NCCc2c[nH]c3ccccc23)c1` [compound 10, 3-methoxyphenethyl 2-(1H-indol-3-yl)ethylcarbamodithioate], on human IDO (setting [2]), the EC50 is 100 to 1000 µM. Besides, the IC50 in experiment [1] (setting [3]) fell in the range of 100 to 1000 µM. As for `CSC(=S)NCCCCCCc1c[nH]c2ccccc12` [compound 27, Methyl 6-(1H-indol-3-yl)hexylcarbamodithioate], the EC50 at human IDO (setting [2]) fell in the range of 100 to 1000 µM. Moreover, the IC50 in experiment [1] (setting [3]) lay within 100 to 1000 µM. `Oc1ccccc1C(=S)NCc1ccccc1` [compound 656, N-Benzyl-2-hydroxybenzothioamide]: the EC50 on human IDO (setting [2]) fell in the range of 20 to 100 µM. Besides, in experiment [1] (setting [3]), the IC50 was 100 to 1000 µM.

With `CSC(=S)NC(C)(C)Cc1c[nH]c2ccccc12` [compound 28, Methyl 1-(1H-indol-3-yl)-2-methylpropan-2-ylcarbamodithioate], the EC50 on human IDO (setting [2]) fell in the range of 20 to 100 µM. The 50% inhibitory concentration (IC50) in experiment [1] (setting [3]) was 100 to 1000 µM. On to `NOC(CCN1CCOCC1)c1ccccc1` (stereo not shown) [compound 1929, O-(3-morpholino-1-phenylpropyl)hydroxylamine], for which, in experiment [1] (setting [4]), the IC50 lay within 100 to 1000 µM.

For `Cn1[nH]c(=O)c(=O)nc1SCc1ccc2ccccc2c1` [compound 682, 2-Methyl-3-(naphthalen-2-ylmethylthio)-1,2-dihydro-1,2,4-triazine-5,6-dione], on human IDO (setting [2]), the EC50 lay within 100 to 1000 µM. Further, the IC50 in experiment [1] (setting [3]) lay within 100 to 1000 µM. On to `Nc1ccccc1NC(=O)CCc1csc2ccccc12` [compound 739, N-(2-aminophenyl)-3-(benzo[b]thiophen-3-yl)propanamide], for which the EC50 on human IDO (setting [2]) was in the range of 100 to 1000 µM. Also, in experiment [1] (setting [3]), the IC50 fell in the range of 100 to 1000 µM. For `NCCC(ON)c1ccccc1` (stereo not shown) [compound 1877, 3-(aminooxy)-3-phenylpropan-1-amine], in experiment [1] (setting [4]), the IC50 lay within 10 to 100 µM.

Take `Oc1ccc(Cc2ccccc2)c2cccnc12` [compound 664, 5-benzylquinolin-8-ol]: the IC50 in experiment [1] (setting [3]) was in the range of 100 to 1000 µM. Turning to `NO[C@@H](CCO)c1ccccc1` [compound 1883, (S)-3-(aminooxy)-3-phenylpropan-1-ol], the IC50 in experiment [1] (setting [4]) fell in the range of 100 to 1000 µM. `Oc1noc(O)c1-c1ccccc1` [compound 707, 4-phenylisoxazole-3,5-diol]: the IC50 in experiment [1] (setting [3]) lay in the range of 100 to 1000 µM. With `CC(C)(C)OC(=O)NCC(ON)c1ccccc1` (stereo not shown) [compound 1876, tert-butyl 2-(aminooxy)-2-phenylethylcarbamate], the IC50 in experiment [1] (setting [4]) fell in the range of 100 to 1000 µM. For `O=C(Cc1ccccc1)NO` [compound 889, N-hydroxy-2-phenylacetamide], the IC50 in experiment [1] (setting [3]) was in the range of 100 to 1000 µM.

On to `O=C(O)CCn1[nH]c(=O)c2ccccc21` [compound 267, 3-(3-oxo-2,3-dihydro-1H-indazol-1-yl)propanoic acid], for which the IC50 in experiment [1] (setting [3]) lay in the range of 100 to 1000 µM. Take `CNC(=O)[C@H](ON)c1ccccc1` [compound 2034, (R)-2-(aminooxy)-N-methyl-2-phenylacetamide]: the concentration for half-maximal inhibition (IC50) in experiment [1] (setting [4]) lay within 100 to 1000 µM.

For `CC(=O)NCC(ON)c1ccccc1` (stereo not shown) [compound 1899, N-(2-(aminooxy)-2-phenylethyl)acetamide], in experiment [1] (setting [4]), the IC50 is 100 to 1000 µM.

Consider `CNCCC(ON)c1ccccc1` (stereo not shown) [compound 1904, 3-(aminooxy)-N-methyl-3-phenylpropan-1-amine], for which the IC50 in experiment [1] (setting [4]) lay within 100 to 1000 µM. Consider `Nc1ccccc1NC(=O)CCc1c[nH]c2ccccc12` [compound 592, N-(2-aminophenyl)-3-(1H-indol-3-yl)propanamide], for which the IC50 in experiment [1] (setting [3]) was in the range of 100 to 1000 µM. For `CNC(=O)[C@@H](ON)c1ccccc1` [compound 2033, (S)-2-(aminooxy)-N-methyl-2-phenylacetamide], the IC50 in experiment [1] (setting [4]) is less than 10 µM.

In the case of `S=C(NCCCc1c[nH]c2ccccc12)Nc1nccs1` [compound 565, 1-(3-(1H-indol-3-yl)propyl)-3-(thiazol-2-yl)thiourea], the IC50 in experiment [1] (setting [3]) lay within 100 to 1000 µM. Consider `NO[C@H](Cc1ccccc1)C(=O)O` [compound 1690, (R)-2-(aminooxy)-3-phenylpropanoic acid], for which the IC50 in experiment [1] (setting [5]) was 100 to 1000 µM. As for `Cc1cccc(CCSC(=S)NCCc2c[nH]c3ccccc23)c1` [compound 20, 3-Methylphenethyl 2-(1H-indol-3-yl)ethylcarbamodithioate], the IC50 in experiment [1] (setting [3]) is 100 to 1000 µM. Still for that read-out and setting: in the case of `S=C(NCc1c[nH]c2ccccc12)Nc1nccs1` [compound 568, 1-((1H-indol-3-yl)methyl)-3-(thiazol-2-yl)thiourea] it was 100 to 1000 µM.

As to `NOC(CN1CCOCC1)c1ccccc1` (stereo not shown) [compound 1936, O-(2-morpholino-1-phenylethyl)hydroxylamine], in experiment [1] (setting [4]), the IC50 was in the range of 10 to 100 µM. As for `S=C(NCc1ccc2ccccc2c1)Nc1nccs1` [compound 591, 1-(naphthalen-2-ylmethyl)-3-(thiazol-2-yl)thiourea], in experiment [1] (setting [3]), the IC50 is 100 to 1000 µM. On to `S=C(NCCCc1c[nH]c2ccccc12)c1ccccc1` [compound 673, N-(3-(1H-indol-3-yl)propyl)benzothioamide], for which, in experiment [1] (setting [3]), the IC50 was 100 to 1000 µM.

Take `NOC(CCC(=O)NC1CCCCC1)c1ccccc1` (stereo not shown) [compound 1901, 4-(aminooxy)-N-cyclohexyl-4-phenylbutanamide]: the IC50 in experiment [1] (setting [4]) is 100 to 1000 µM.

Regarding `CSC(=S)NCCc1ccncc1` [compound 69, Methyl 2-(pyridin-4-yl)ethylcarbamodithioate], in experiment [1] (setting [3]), the IC50 fell in the range of 100 to 1000 µM. As for `CCC(CC)C1NC(C(=O)O)Cc2c1[nH]c1ccccc21` (stereo not shown) [compound 525, 1-(pentan-3-yl)-2,3,4,9-tetrahydro-1H-pyrido[3,4-b]indole-3-carboxylic acid], the 50% inhibitory concentration (IC50) in experiment [1] (setting [3]) is 100 to 1000 µM.

In the case of `OCCc1c[nH]c2ccccc12` [compound 606, 2-(1H-indol-3-yl)ethanol], in experiment [1] (setting [3]), the IC50 is 100 to 1000 µM. Same read-out and setting: in the case of `S=C1OCCN1Cc1ccc2ccccc2c1` [compound 786, 3-(Naphthalen-2-ylmethyl)oxazolidine-2-thione] it was 100 to 1000 µM; in that of `S=C1OCCN1Cc1ccccc1` [compound 81, 3-Benzyloxazolidine-2-thione], 100 to 1000 µM.
